Data set [1] relates to Hsp90α. The conditions noted are these: for plasma Hsp90α at baseline versus after sorafenib alone: day -14 versus day -1, 14 day run in of daily oral sorafenib.
Method: Human and xenograft plasma samples of 10 μL were added to sample diluent buffer and assayed in duplicate in the antibody-coated 96-well plate. After incubation at room temperature for one hour, wells were washed 6 times with washing buffer. 100 uL HRP conjugate was added to wells and incubated for one hour. Wells were washed 6 times, 100 uL TMB substrate was added to each well, and the plate was incubated for 20 minutes. Absorbance was measured at 450 nm on a plate reader.
For data set [2] the following is noted: preclinical toxicology studies; cited from earlier work.
For data set [3] the following is noted: nude mice, days 1-4, 15-18 i.p.; cited from earlier work.
The test system of data set [4] is MEXF276L xenografts. The conditions noted are these: tumor-bearing mice, MEXF276L and MEXF514L, 24, 48, 72 hrs after 60 mg/kg/d. As for the experimental part:
Approximately 100 μl blood was available through tail vein puncture, the 72 hr time point was collected by exsanguinations/cardiac puncture.

The test system of data set [5] is MEXF276L cells. Briefly: Hsp90 isoforms and MMP2 in serum-free conditioned medium, Western blot. In kind it is cell-based, human. As for the experimental part:
In addition, levels of matrix metalloprotease 2 (MMP2, FIG. 3B), an extracellular client protein of Hsp90α were analyzed.
For orientation: A western blot detects proteins with antibodies after separation by electrophoresis.

Data set [6] concerns MEXF276L cells. The data set is described as follows: Immunofluorescence localization of Hsp90 isoforms α and β. In kind it is cell-based, human. The conditions noted are these: sensitive melanoma cells exposed to 17AAG, time course. As for the experimental part:
(§1) Cells were treated at the respective concentrations that cause total growth inhibition (TGI) (Burger et al., 2005). […] Co-localization of proteins results in the occurrence of orange to yellow colors in merged pictures. Bar=15 μm.

Data set [7] concerns MEXF276L and MEXF514L cells. Briefly: Hsp90 expression in whole cell lysates of 17AAG sensitive and resistant melanoma cell lines. In kind it is cell-based, human. The conditions noted are these: 17AAG at TGI; responsive MEXF276L, not resistant MEXF514L. As for the experimental part:
as §1

For data set [8], the system named is MEXF276 xenograft model. The conditions noted are these: 60 mg/kg/day i.p. on days 1-5 and 8-12; cited from earlier work.
Data set [9] has as its system MEXF276L cells. The data set is described as follows: Cell cycle distribution, apoptotic sub G1 fraction. The conditions noted are these: 17AAG at TGI. In kind it is cell-based, human.

Like-named read-outs stand apart in the source and are kept apart here.

`CNC(=O)c1cc(Oc2ccc(NC(=O)Nc3ccc(Cl)c(C(F)(F)F)c3)cc2)ccn1` [sorafenib]: the “plasma Hsp90α at baseline versus after sorafenib alone” value is reported as “little difference in plasma Hsp90α” in data set [1] and “no effects on Hsp90α” in [1] (listed as Bay 43-9006).
As for `COC1=C2C[C@@H](C)C[C@H](OC)[C@H](O)[C@@H](C)/C=C(\C)[C@H](OC(N)=O)[C@@H](OC)/C=C\C=C(/C)C(=O)NC(=CC1=O)C2=O` [Geldanamycin], the hepatotoxicity entry in [2] was “severe hepatotoxicity”.
Take `CN(C)/N=N/c1[nH]cnc1C(N)=O` [DTIC]: the maximal tolerated dose in data set [3] is 70 mg/kg/day.
Take `C=CCNC1=C2C[C@@H](C)C[C@H](OC)[C@H](O)[C@@H](C)/C=C(\C)[C@H](OC(N)=O)[C@@H](OC)/C=C\C=C(/C)C(=O)NC(=CC1=O)C2=O` [17AAG, 17-allylamino, 17-demethoxygeldanamycin]: in data set [1] (after 17AAG administration, shrinkage in 2/3, CT attenuation consistent with tumor necrosis in 1 of 3), the “evidence of clinical response in patients with increase in plasma Hsp90α” value is given as 3/3. The “induction of plasma Hsp90α, pre (day -1) versus post (72 hrs, day 4) treatment” value in data set [1] (cancer patients, p=0.0287) is “induction is significant”. Further, in [1] (day four, 72 hrs after first 17AAG dose, after 14 day sorafenib run in), the “patients with increase in plasma Hsp90α” value was 3 of 7. Also, in [4], the “plasma Hsp90α after treatment versus pre 17-AAG” value is “increase in plasma Hsp90α in most cases”. Also, in data set [5], the “Hsp90α and Hsp90β detected in the medium” value was “increased detection of Hsp90α but not Hsp90β in the medium”; the “form of extracellular MMP2” value was “shift of the extracellular localized MMP2 from the fully active 66 kd form to the 72 kd latent form”. Also, the “localization of Hsp90α and Hsp90β” value in data set [6] is “Hsp90α is lost at 2-24 hrs”. Moreover, in data set [7], the “cytoplasmic Hsp90 level” value was “loss of cytoplasmic Hsp90”. Also, in data set [8], the “growth inhibition compared to control” value was 92%, the “time of actual tumor remissions” value was 10 to 17 days and the tolerability result is “well tolerated (no animal death)”. For the same compound, the “apoptotic cell debris (sub G1 fraction) compared to control cells” value in [9] was “only seen at 48 hrs”.

Values taken from patent US8580519B2, “Use of plasma HSP90 related to malignancy” (University of Maryland, Baltimore, priority 2006, dated 2013).
